Kd data for one molecule are collected here from patent US12415834B2, “GhR-binding peptide and composition comprising same” (priority 2021, dated 2025).

The target in this test is T1, Recombinant human GhR-Fc protein (Homo sapiens, UniProt P10912).
T1 construct: purchased R&D Systems
The test is described as follows: SPR binding assay (Biacore T200, single-cycle kinetics) of peptides against immobilized human GhR-Fc. To be noted: SPR, hGhR; Table 2 monocyclic peptides; KD calculated from ka and kd; read-out: KD. The procedure, abridged: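 Human GhR-Fc amine-coupled to a CM5 chip at pH 4.0; running buffer HBS-EP with 1% DMSO. Peptides measured by single-cycle kinetics on Biacore T200, with solvent correction and baseline subtraction. KD calculated from fitted ka and kd.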

Usually Kd stands for a measure of binding affinity in units of concentration.

Starred links: 1 amine or outer side, 2 acyl side, 3 side chain; linkers in the order of their positions; H or OH if unused. Positions of bridges follow the written chain, without caps; N, C: chain ends. Non-standard residues stand in square brackets, D forms with d. Residues, ends and D or L forms follow the SMILES beside them. Groups on a side chain read outwards from the residue. *: point of attachment. Trp(5-OMe) = COc1ccc2[nH]cc(C[C@H](N)C(=O)O)c2c1; Trp(5-OH) = N[C@@H](Cc1c[nH]c2ccc(O)cc12)C(=O)O; Phe(4-COOH) = N[C@@H](Cc1ccc(C(=O)O)cc1)C(=O)O; γGlu = O=C(O)[C@H](CCC(=O)[*:2])N[*:1]; Hexanoyl(6-Ph) = O=C(CCCCCc1ccccc1)*; NMeK = CN[C@@H](CCCCN)C(=O)O; Aib = CC(C)(N)C(=O)O

T1 sequence (P10912 with tags, fused parts or gaps limits assumed): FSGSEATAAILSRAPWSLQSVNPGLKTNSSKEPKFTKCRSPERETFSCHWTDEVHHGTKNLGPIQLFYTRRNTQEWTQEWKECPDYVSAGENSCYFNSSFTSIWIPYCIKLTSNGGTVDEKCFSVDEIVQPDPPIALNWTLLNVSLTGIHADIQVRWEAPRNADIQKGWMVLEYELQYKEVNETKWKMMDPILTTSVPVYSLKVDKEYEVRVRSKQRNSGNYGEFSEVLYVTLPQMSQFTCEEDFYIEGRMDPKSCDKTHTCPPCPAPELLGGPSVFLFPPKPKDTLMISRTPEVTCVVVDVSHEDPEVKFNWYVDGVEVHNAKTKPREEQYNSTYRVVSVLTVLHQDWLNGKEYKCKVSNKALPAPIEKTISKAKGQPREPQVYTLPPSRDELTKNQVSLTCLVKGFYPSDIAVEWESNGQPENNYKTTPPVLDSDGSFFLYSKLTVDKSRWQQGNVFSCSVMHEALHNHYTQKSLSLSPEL

Take `COc1ccc2[nH]cc(C[C@@H]3NC(=O)[C@H](CC(N)=O)NC(=O)[C@H](CO)NC(=O)[C@H](C(C)C)NC(=O)[C@H](C(C)C)NC(=O)[C@H](CCCCNC(=O)CC[C@H](NC(=O)CCCCCc4ccccc4)C(=O)O)N(C)C(=O)[C@H](Cc4ccc(O)cc4)NC(=O)CSC[C@@H](C(=O)NCC(=O)N4CCC[C@H]4C(=O)N[C@H](CO)C(=O)N[C@H](CO)C(=O)N[C@H](CO)C(N)=O)NC(=O)[C@H](C(C)C)NC(=O)C(C)(C)NC(=O)[C@H](Cc4c[nH]c5ccc(O)cc45)NC(=O)[C@H](CCCCN)NC(=O)[C@H](Cc4ccc(C(=O)O)cc4)NC3=O)c2c1` [Compound 57] ({CH2CO}-Y[NMeK]([γGlu-Hexanoyl(6-Ph)])VVSN[Trp(5-OMe)][Phe(4-COOH)]K[Trp(5-OH)][Aib]VCGP[dS][dS][dS]-NH2; thioether N-13): the Kd is 1.25 nM.
